These results are taken from ChEMBL document CHEMBL3621113, “Strategies for the Discovery of Target-Specific or Isoform-Selective Modulators” (J Med Chem, 2015).

Test [1] has as its target T1, Amine oxidase [flavin-containing] A (Homo sapiens, UniProt P21397).
T1 sequence (P21397 whole entry): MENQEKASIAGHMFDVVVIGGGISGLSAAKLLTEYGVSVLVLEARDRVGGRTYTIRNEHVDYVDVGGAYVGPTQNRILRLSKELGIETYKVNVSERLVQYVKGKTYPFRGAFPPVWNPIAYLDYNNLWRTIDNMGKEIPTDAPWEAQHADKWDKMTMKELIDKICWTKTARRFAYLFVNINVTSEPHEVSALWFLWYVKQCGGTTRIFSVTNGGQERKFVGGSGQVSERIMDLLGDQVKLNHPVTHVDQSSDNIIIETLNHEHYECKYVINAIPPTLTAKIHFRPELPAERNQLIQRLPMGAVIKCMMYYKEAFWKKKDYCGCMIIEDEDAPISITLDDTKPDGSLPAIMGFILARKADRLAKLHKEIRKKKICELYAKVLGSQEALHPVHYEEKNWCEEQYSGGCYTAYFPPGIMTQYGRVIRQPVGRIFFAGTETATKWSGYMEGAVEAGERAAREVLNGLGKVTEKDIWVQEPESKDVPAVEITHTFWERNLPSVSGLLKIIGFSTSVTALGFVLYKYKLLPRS
Description: Inhibition of human MAO-A using (4S)-4,5-dihydro-2-(6-hydroxybenzothiazolyl)-4-thiazolecarboxylic acid as substrate after 60 mins by MAO-Glo assay

Test [2] concerns the target T2, Amine oxidase [flavin-containing] B (Homo sapiens, UniProt P27338).
T2 sequence (P27338 whole entry): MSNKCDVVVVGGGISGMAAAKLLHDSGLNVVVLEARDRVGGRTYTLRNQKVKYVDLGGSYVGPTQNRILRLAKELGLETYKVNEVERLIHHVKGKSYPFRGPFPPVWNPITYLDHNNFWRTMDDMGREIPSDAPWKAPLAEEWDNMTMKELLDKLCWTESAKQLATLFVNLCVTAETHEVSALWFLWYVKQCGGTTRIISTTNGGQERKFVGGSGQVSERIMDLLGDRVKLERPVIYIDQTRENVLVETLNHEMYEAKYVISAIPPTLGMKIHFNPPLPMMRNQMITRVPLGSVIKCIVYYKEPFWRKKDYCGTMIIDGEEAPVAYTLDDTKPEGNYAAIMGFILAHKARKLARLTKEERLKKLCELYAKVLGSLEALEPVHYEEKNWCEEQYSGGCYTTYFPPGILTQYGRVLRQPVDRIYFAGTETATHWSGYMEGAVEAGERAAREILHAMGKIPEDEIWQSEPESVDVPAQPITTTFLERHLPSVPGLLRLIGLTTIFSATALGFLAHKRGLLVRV
Description: Inhibition of human MAO-B using (4S)-4,5-dihydro-2-(6-hydroxybenzothiazolyl)-4-thiazolecarboxylic acid as substrate after 60 mins by MAO-Glo assay

Test [3] deals with T1, Amine oxidase [flavin-containing] A. Nature of the test: Inhibition of MAO-A (unknown origin).
Test [4] deals with Phosphatidylinositol 4,5-bisphosphate 3-kinase catalytic subunit gamma isoform (Homo sapiens, UniProt P48736). The test can be described thus: Inhibition of recombinant human PI3Kgamma by TR-FRET analysis. In general terms: In TR-FRET formats the signal depends on donor and acceptor labels being close together.
Test [5] has as its target T3, Phosphatidylinositol 4,5-bisphosphate 3-kinase catalytic subunit delta isoform (Homo sapiens, UniProt O00329).
T3 sequence (O00329 whole entry): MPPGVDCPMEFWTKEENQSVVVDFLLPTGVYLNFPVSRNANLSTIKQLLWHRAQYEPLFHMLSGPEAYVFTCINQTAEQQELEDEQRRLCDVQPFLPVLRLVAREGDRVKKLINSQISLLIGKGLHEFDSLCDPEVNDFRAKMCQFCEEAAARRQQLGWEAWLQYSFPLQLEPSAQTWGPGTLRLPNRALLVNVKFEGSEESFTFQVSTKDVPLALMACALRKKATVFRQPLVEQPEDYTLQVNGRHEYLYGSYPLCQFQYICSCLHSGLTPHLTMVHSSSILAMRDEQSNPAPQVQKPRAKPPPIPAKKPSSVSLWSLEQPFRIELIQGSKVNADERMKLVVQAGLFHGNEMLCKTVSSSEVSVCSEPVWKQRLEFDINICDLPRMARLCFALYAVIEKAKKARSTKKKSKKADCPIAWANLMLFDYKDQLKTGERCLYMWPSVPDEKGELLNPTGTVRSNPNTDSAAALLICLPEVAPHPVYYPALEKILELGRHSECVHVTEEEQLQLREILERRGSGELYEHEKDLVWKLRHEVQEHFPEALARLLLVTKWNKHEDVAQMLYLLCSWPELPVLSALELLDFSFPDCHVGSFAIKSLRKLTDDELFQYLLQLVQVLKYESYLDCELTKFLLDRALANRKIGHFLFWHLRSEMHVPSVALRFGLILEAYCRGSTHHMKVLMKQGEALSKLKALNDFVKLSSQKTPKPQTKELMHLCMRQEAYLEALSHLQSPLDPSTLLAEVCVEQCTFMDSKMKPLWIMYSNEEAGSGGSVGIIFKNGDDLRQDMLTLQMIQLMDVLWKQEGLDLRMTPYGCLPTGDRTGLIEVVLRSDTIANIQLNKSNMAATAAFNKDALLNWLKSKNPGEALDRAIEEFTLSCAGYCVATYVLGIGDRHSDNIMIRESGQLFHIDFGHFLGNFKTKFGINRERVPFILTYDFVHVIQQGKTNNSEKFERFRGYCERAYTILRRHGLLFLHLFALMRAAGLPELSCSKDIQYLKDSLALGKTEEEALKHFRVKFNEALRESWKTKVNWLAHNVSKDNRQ
The test can be described thus: Inhibition of recombinant human PI3Kdelta by TR-FRET analysis.

Test [6] deals with Phosphatidylinositol 4,5-bisphosphate 3-kinase catalytic subunit beta isoform (Homo sapiens, UniProt P42338). The test can be described thus: Inhibition of recombinant human PI3Kbeta by TR-FRET analysis.
For test [7], the target named is Serine/threonine-protein kinase mTOR (Homo sapiens, UniProt P42345). Nature of the test: Inhibition of recombinant human mTOR by TR-FRET analysis.
The target of a further test is Histone deacetylase 5 (Homo sapiens, UniProt Q9UQL6).
The target in test [8] is T4, Protein deacetylase HDAC6 (Homo sapiens, UniProt Q9UBN7).
T4 sequence (Q9UBN7 whole entry): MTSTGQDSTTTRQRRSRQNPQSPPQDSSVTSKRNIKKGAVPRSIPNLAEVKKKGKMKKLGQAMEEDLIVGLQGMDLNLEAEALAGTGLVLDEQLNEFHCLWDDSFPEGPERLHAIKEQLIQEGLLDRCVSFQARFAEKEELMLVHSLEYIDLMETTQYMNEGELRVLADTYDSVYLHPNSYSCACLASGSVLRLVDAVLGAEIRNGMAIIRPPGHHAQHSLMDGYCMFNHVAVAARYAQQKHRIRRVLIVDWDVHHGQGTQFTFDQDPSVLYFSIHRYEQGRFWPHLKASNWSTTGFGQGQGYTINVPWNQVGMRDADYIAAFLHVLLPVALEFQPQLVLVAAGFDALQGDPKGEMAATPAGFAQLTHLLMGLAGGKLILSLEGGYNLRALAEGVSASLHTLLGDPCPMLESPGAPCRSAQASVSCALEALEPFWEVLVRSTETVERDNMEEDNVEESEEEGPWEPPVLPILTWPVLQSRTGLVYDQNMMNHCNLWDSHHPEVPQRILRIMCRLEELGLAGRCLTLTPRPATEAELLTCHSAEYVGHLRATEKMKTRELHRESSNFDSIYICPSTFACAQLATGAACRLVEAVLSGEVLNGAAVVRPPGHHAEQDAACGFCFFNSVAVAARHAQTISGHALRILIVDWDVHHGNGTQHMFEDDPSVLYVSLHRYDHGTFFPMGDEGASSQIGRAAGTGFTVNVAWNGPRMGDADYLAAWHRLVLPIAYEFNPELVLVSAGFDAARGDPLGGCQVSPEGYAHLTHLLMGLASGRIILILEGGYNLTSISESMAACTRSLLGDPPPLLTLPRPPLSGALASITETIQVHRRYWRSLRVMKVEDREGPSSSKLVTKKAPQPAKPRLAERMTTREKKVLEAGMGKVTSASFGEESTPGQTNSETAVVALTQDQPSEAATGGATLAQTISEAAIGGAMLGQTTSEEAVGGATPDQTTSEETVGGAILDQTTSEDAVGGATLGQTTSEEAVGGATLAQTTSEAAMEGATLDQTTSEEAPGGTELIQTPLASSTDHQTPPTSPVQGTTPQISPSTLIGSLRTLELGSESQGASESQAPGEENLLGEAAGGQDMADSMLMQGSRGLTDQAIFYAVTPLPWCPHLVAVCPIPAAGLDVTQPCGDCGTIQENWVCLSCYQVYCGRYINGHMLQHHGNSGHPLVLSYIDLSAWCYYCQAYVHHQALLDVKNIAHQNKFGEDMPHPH
The test can be described thus: Inhibition of HDAC6 in human HeLa nuclear extracts by fluorometric assay.

The target in a further test is T5, Histone deacetylase 8 (Homo sapiens, UniProt Q9BY41).
T5 sequence (Q9BY41 whole entry): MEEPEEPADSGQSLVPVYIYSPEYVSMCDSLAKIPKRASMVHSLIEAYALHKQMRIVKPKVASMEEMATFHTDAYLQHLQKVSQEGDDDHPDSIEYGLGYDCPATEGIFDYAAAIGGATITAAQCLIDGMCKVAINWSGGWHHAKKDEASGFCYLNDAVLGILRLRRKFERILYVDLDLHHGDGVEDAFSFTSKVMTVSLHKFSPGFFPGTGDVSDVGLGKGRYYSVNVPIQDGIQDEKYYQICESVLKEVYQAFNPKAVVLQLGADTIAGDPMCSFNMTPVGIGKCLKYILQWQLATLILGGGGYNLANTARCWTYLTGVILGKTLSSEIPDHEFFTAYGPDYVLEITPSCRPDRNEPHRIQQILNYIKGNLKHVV
The test can be described thus: Inhibition of HDAC8 in human HeLa nuclear extracts by fluorometric assay.

The next test has as its target Histone deacetylase 4 (Homo sapiens, UniProt P56524). Nature of the test: Inhibition of HDAC4 in human HeLa nuclear extracts by fluorometric assay.
Test [9] has as its target Non-receptor tyrosine-protein kinase TYK2 (Homo sapiens, UniProt P29597). The test can be described thus: Inhibition of TYK2 (unknown origin) after 20 mins by radiometric analysis in presence of [gamma33P]-ATP.
Test [10] deals with Tyrosine-protein kinase JAK1 (Homo sapiens, UniProt P23458). The test can be described thus: Inhibition of JAK1 (unknown origin) after 20 mins by radiometric analysis in presence of [gamma33P]-ATP.
Test [11] concerns the target T6, Tyrosine-protein kinase JAK3 (Homo sapiens, UniProt P52333).
T6 sequence (P52333 whole entry): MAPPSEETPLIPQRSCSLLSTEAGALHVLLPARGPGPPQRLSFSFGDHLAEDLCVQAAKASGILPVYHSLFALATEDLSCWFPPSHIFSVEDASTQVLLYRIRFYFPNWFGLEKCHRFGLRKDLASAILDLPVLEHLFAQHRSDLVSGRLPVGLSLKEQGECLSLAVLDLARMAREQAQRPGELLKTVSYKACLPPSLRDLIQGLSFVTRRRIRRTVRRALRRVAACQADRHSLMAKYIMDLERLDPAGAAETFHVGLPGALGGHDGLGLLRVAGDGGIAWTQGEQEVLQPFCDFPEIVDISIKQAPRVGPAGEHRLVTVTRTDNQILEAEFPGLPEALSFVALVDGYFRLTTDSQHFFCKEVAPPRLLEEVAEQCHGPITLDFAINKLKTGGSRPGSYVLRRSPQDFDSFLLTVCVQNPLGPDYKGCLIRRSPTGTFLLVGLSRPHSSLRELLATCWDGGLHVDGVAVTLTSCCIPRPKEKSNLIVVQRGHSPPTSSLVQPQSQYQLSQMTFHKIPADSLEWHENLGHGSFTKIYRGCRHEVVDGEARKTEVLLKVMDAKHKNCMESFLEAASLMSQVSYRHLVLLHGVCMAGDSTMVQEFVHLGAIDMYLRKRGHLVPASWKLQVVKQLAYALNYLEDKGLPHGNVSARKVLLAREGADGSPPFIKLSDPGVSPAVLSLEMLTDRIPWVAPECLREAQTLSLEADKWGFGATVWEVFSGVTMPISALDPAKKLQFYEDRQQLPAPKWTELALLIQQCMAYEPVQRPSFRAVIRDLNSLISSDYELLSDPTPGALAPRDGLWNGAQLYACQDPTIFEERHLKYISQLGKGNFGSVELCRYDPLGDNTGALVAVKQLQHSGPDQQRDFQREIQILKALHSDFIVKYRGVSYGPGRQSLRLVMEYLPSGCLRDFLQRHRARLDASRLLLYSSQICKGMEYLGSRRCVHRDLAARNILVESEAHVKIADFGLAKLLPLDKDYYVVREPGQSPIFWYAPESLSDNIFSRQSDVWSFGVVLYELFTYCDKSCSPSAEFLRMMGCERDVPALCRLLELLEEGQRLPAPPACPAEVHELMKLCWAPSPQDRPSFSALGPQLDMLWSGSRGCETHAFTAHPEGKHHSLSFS
The test can be described thus: Inhibition of JAK3 (unknown origin) after 20 mins by radiometric analysis in presence of [gamma33P]-ATP.

Test [12] has as its target Tyrosine-protein kinase JAK2 (Homo sapiens, UniProt O60674). The test can be described thus: Inhibition of JAK2 (unknown origin) after 20 mins by radiometric analysis in presence of [gamma33P]-ATP.

Histone deacetylase 5, sequence (Q9UQL6 whole entry): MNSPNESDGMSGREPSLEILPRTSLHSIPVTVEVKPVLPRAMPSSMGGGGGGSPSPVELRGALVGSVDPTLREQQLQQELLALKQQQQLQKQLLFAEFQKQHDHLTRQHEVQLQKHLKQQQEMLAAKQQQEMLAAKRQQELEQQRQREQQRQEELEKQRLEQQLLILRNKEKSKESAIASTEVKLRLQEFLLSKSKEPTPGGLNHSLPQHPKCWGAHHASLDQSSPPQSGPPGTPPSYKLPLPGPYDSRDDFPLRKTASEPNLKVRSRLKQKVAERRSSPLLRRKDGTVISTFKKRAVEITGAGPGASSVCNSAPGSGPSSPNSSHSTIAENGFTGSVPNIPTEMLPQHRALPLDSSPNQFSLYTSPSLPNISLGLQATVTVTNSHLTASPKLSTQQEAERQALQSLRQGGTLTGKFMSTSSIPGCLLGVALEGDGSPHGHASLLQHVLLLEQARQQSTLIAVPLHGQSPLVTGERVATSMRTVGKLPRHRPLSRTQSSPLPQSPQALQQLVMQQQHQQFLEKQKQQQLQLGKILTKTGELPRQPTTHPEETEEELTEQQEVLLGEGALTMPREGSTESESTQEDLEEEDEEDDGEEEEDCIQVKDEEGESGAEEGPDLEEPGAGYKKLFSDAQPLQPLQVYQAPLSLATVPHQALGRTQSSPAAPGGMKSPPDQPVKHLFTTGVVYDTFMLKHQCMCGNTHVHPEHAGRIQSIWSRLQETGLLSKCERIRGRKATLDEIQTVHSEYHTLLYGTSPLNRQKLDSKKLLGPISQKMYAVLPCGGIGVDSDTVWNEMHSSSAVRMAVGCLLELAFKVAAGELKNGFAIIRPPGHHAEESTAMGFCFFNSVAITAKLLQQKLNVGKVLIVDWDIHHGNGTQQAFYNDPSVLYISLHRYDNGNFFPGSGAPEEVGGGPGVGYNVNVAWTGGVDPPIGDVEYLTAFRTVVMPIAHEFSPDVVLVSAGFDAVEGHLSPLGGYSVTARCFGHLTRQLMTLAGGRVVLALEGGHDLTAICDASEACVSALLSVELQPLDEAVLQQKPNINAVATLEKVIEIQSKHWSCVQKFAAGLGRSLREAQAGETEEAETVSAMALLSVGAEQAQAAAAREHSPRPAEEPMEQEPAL
Phosphatidylinositol 4,5-bisphosphate 3-kinase catalytic subunit gamma isoform, sequence (P48736 whole entry, canonical isoform): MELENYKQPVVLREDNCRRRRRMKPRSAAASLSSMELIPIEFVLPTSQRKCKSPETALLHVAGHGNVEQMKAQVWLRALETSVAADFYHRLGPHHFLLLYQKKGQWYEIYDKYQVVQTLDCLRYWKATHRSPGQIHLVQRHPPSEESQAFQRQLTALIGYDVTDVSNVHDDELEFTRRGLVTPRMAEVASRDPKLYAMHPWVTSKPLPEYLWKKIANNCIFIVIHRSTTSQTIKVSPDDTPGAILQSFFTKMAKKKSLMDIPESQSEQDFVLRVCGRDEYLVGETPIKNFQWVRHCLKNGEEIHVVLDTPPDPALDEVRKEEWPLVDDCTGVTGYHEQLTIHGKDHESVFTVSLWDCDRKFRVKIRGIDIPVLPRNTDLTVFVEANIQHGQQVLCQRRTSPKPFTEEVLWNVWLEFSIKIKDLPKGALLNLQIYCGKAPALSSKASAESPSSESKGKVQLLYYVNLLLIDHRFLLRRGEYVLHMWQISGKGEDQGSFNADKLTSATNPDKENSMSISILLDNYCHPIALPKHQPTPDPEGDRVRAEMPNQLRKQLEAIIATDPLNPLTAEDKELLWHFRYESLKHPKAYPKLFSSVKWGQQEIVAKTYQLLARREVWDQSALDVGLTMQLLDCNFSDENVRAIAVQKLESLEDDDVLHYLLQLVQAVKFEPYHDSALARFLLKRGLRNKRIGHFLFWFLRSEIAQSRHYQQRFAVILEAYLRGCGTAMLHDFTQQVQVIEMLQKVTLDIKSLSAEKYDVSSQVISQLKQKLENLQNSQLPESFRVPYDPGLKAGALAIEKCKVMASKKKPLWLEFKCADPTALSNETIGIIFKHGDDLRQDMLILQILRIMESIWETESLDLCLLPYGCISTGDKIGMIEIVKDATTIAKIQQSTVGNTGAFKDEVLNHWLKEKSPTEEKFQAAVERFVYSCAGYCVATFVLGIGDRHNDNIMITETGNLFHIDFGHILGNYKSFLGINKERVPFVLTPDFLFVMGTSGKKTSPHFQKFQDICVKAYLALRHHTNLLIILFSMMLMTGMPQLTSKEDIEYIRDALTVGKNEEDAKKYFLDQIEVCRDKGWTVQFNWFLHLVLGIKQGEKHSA
Tyrosine-protein kinase JAK2, sequence (O60674 whole entry): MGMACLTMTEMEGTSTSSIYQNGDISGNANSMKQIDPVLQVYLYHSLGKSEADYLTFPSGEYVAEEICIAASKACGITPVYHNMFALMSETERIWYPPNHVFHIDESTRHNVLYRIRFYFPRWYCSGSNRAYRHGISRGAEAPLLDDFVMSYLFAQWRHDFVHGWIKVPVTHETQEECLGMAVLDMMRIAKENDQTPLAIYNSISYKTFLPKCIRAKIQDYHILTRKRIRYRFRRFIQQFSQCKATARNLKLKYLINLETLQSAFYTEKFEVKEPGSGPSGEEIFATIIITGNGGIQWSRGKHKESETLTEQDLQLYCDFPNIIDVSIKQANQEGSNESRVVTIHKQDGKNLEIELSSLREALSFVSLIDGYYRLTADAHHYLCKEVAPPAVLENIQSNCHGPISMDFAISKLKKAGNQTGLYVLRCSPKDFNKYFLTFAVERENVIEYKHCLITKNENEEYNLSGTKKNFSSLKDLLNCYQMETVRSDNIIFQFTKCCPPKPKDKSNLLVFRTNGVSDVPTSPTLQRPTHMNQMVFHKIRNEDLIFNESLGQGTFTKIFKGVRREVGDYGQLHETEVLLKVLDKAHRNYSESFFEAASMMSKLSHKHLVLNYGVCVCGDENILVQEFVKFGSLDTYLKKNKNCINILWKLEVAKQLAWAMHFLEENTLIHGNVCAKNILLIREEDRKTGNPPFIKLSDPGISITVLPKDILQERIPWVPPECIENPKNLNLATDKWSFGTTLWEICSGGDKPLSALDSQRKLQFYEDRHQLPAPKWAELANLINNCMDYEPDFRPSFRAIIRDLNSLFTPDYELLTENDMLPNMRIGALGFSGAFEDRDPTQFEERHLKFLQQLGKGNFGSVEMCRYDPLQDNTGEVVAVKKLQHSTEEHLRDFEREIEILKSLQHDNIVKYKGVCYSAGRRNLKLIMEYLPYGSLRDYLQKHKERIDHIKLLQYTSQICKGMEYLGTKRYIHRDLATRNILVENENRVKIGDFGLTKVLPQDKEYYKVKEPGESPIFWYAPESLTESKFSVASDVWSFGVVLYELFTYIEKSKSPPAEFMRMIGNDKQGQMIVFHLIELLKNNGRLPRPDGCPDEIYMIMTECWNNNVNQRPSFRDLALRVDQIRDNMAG
Histone deacetylase 4, sequence (P56524 whole entry): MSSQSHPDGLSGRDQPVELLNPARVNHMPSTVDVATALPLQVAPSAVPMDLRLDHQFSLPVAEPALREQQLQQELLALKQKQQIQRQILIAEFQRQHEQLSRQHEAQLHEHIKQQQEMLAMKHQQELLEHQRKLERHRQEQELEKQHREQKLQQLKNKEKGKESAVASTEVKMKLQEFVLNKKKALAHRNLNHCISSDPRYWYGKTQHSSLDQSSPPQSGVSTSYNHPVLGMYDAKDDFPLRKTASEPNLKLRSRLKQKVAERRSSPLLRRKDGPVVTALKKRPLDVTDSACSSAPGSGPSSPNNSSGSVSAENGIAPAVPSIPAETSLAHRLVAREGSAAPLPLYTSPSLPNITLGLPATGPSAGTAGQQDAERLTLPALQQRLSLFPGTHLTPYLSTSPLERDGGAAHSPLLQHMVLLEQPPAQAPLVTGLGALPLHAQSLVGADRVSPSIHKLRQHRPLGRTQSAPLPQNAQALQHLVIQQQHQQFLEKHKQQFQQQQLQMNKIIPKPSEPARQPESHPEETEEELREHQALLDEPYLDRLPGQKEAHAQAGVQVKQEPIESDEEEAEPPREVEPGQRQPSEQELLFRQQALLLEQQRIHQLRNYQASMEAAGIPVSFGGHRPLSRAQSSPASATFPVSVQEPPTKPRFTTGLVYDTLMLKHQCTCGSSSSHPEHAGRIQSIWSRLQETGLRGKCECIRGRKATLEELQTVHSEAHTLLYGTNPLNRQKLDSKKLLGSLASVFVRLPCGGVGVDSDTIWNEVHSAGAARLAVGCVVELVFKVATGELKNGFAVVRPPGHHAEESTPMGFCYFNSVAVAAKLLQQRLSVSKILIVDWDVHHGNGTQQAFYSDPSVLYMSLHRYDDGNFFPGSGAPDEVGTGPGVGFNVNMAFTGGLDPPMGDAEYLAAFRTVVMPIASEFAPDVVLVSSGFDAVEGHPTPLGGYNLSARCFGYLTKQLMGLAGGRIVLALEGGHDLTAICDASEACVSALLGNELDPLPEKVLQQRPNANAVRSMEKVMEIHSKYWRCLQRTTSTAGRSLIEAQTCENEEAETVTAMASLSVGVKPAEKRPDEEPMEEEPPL
Description for Histone deacetylase 5: Inhibition of HDAC5 in human HeLa nuclear extracts by fluorometric assay

Broadly, the IC50 is the point on the concentration scale where inhibition reaches its midpoint. Consider `N[C@@H]1C[C@H]1c1ccc(OCC[C@H](NC(=O)c2ccccc2)C(=O)NCc2ccccc2)cc1`, for which the 50% inhibitory concentration (IC50) in test [1] was 290 µM; in test [2], above 1000 µM.
For the compound `NC1CC1c1cccc(OCC[C@H](NC(=O)c2ccccc2)C(=O)NCc2ccccc2)c1` (stereo partly drawn), the half-inhibitory concentration (IC50) in test [1] amounted to 230 µM; in [2], 500 µM.
The compound `O=C(N[C@@H](CCCCNC1CC1c1ccccc1)C(=O)NCc1ccccc1)c1ccccc1` (stereo partly drawn) returned an IC50 in [3] above 25 µM.
For the compound `C[C@@H]1COCCN1c1cc(=O)n2c(n1)N(Cc1cncc(Cl)c1)[C@H](C(F)(F)F)CC2`, the IC50 in test [4], in test [5], in [6] and in test [7] was above 10 µM in each case.
In the case of `Nc1ccccc1NC(=O)c1ccc(-c2cn(CCc3ccsc3)nn2)cc1`, the IC50 (against Histone deacetylase 5; in test [8]; at Histone deacetylase 8; on Histone deacetylase 4) was above 100 µM throughout.
Take `Nc1ccccc1NC(=O)c1ccc(-c2cn(CCc3cccc([N+](=O)[O-])c3)nn2)s1`: on Histone deacetylase 5, the IC50 is above 100 µM.
As for `c1nc(-c2cn(CC3CO3)nn2)c2cc[nH]c2n1` (stereo not drawn), the half-inhibitory concentration (IC50) worked out at 5.62 µM in test [9], 2.73 µM in [10], 0.035 µM in test [11] and 2.45 µM in [12].
